Measurements taken from patent US20090253616A1, “COMBINATION THERAPY FOR THE TREATMENT OF CANCER” (ASTRAZENECA AB, priority 2006, published 2009).

Test system: MCF7 ADR cells
Experiment: Activity in MDR cells: inhibition of phosphohistone H3 (phH3) in MCF7 ADR cells, with and without UIC2 mAb
Format: cell-based
Experimental: MCF7 ADR cells are known to highly express Pgp and other efflux transporters.
On day 1; 8×10^4 MCF7 ADR cells/ml were plated into a 96 well plate in 100 μl of media (DMEM, 10% FCS, 1% glutamine) and left to adhere at 37° C. overnight.
After 24 hours the cells were examined using the light microscope, and any cellular change in morphology was noted. The cells were then fixed with 100 μl of 3.7% formaldehyde for 30 minutes at room temperature and then washed in PBS using an automated plate washer. 1001 PBS 0.5% triton X-100 was then added for 5 minutes on a shaker. The plate was washed in 100 μl PBS and 50 μl of primary antibody (1:1000 rabbit anti-phosphohistone H3 in PBS 1% BSA 0.5% tween) was added. The plate was left for at least 1 hour at room temperature, on a shaker, after which the antibody was removed and the cells washed twice with PBS. In darkness, 50 μl of secondary antibody (1:10,000 Hoechst and 1:1000 Alexa Fluor 488 anti rabbit in PBS 1% BSA 0.5% tween) was added and the plate left for at least 1 hour at room temperature. The secondary antibody was removed and the plate washed twice with PBS. 200 μl PBS was then added and left for 10 minutes with shaking. The PBS was removed. 100 μl PBS was added and the plate sealed prior to analysis. […]
The plate was analysed on a Cellomics Arrayscan using the Target Activation algorithm. […]

## CCN(CCCOc1ccc2c(Nc3cc(CC(=O)Nc4cccc(F)c4)[nH]n3)ncnc2c1)CCOP(=O)(O)O [aurora kinase inhibitor, 2-[[3-({4-[(5-{2-[(3-fluorophenyl)amino]-2-oxoethyl}-1H-pyrazol-3-yl)amino]-quinazolin-7-yl}oxy)propyl](ethyl)amino]ethyl dihydrogen phosphate]
100 nM
  activity of aurora kinase inhibitor alone (inhibition of phH3): inactive
Efflux inhibited by UIC2 mAb 10 μg/ml
  Pgp mediated efflux of the compound (substrate of Pgp): Pgp mediated efflux
